Measurements published in ChEMBL document CHEMBL4261578, “Structure-Function Analysis of Immune Checkpoint Receptors to Guide Emerging Anticancer Immunotherapy” (J Med Chem, 2018).
Numbered stars: 1 amine (or outer) side, 2 acyl side, 3 side chain; on linkers, the order of the positions; unused ones are H or OH. Bridge positions count the residues as written; N and C are the ends. Square brackets hold non-standard residues; d marks the D form. Peptide text beside a SMILES is read from it. ξ: configuration not given here. X1 = CC(C)C[C@H](N[*:1])C(=O)NC(=O)[*:2]; NMeNle = CCCC[C@H](NC)C(=O)O; NMeA = CN[C@@H](C)C(=O)O; ξP = O=C(O)C1CCCN1; ξC = NC(CS)C(=O)O; Sar = CNCC(=O)O

Molecular target: Programmed cell death 1 ligand 1 (Homo sapiens, UniProt Q9NZQ7)
Test: Inhibition of PD-L1 (unknown origin)

Chain of Programmed cell death 1 ligand 1 (Q9NZQ7 whole entry): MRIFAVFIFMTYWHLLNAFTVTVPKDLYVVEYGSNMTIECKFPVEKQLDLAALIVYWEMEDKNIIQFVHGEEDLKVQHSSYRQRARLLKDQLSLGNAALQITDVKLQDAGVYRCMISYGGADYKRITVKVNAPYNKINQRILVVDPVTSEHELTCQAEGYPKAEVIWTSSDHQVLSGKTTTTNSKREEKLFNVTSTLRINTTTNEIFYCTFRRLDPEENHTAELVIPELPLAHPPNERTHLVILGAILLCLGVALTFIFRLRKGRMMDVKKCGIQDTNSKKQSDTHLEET

CCCC[C@H]1C(=O)N(C)[C@@H](CCCC)C(=O)N[C@@H](CCCNC(=N)N)C(=O)NC(C(=O)NCC(N)=O)CSCC(=O)N[C@@H](Cc2ccccc2)C(=O)N(C)[C@@H](C)C(=O)N[C@@H](CC(N)=O)C(=O)N2CCCC2C(=O)N[C@@H](CC(C)C)C(=O)NC(=O)N(C)CC(=O)NCC(=O)N[C@@H](Cc2c[nH]c3ccccc23)C(=O)N[C@@H](Cc2c[nH]c3ccccc23)C(=O)N1C (stereo partly specified) ({CH2CO}-F[NMeA]N[ξP][X1][Sar]GWW[NMeNle][NMeNle]R[ξC]G-NH2; thioether N-13)
IC50: 5.2 nM
